PMC6316070 (Marine Drugs, 2018)

Columns and labels:
Settings in all cases: human
[1] = in vitro
Description: (§1) The in vitro cytotoxic effects of the novel compounds 1, 8, and 9 were evaluated on five human cancer cell lines using the MTT (3-(4,5-dimethylthiazol-2-yl)-2,5-diphenyltetrazolium bromide) method [32, 33, 34]. […] All cells were cultured in RPMI-1640 medium containing 10% fetal bovine serum (FBS), and kept in a humidified atmosphere containing 5% CO2 at 37 °C. […] In brief, the cell suspensions (200 μL, 5 × 10^4 cells/mL) were seeded into 96-well culture plates and kept at 37 °C for 12 h, then the sample solvents (20 μL) were added into each well and further cultured at 37 °C for 24 h. Subsequently, MTT (100 μg) was added into each well and incubated at 37 °C for 4 h. After removal of the 100 μL culture medium, the cells were lysed with 20% SDS-50% DMF (100 μL). The remaining lysates were subjected to measurements of the optical density at 595 nm with a 96-well microtiter plate reader. Reed and Muench’s method was used to calculate IC50 values [32].

[2] = in vitro; remark: listed apart in the source
Description: as §1

[3] = in vitro; remark: listed apart in the source
Description: as §1

[4] = in vitro; remark: listed apart in the source
Description: as §1

[5] = in vitro; remark: listed apart in the source
Description: as §1

Measured: IC50

CC(=O)OCC(C)=CCCC(C)(O)C1CCC(C)(O)C1C (stereo not shown) [Compound 8, Cyclonerodiol C]
> 40 µM: all assays above

CC1C(C(C)(O)CC=CC(C)(C)O)CCC1(C)O (stereo not shown) [Compound 9, Cyclonerodiol D]
> 40 µM: all assays above
